The term LD50 denotes the dose expected to kill half of the subjects tested. Read a high LD50 as a less toxic substance.

Data set [1] in a line: electroencephalographic effects (EEG) in the rat. The class given is in vivo. Particulars: 20 mg/Kg p.o. As to the method:
Moreover, the compound prepared in Example 1 was tested at the dose of 20 mg/Kg p.o. in the rat and the electroencephalographic effects (EEG) were observed. […] See Buonamici, M., Young, G. A. and Khazon (1982), Neuropharmacology, 21 : 825-829.

Data set [2] in a line: orientative acute toxicity (LD50), p.o. mice. Particulars: mouse, in vivo, po.

Structures are written as SMILES.

Regarding `CO[C@]12C[C@@H](COC(=O)C3=CN(C)C=CC3)CN(C)[C@@H]1Cc1cn(C)c3cccc2c13` [Example 1, 10-Methoxy-,1,6-dimethyl-8β-(1-methyl-,1,4-dihydro-3-pyridyl-carbonyloxymethyl)-ergoline], the “electroencephalographic effects (EEG)” value in data set [1] is “increased and long-lasting modifications”. Also, in data set [2], the LD50 is above 800 mg/kg.
